System: KRAS patient-derived spheroids with HUVEC/MSC, viability
Experiment: Anticancer human tumor 941728-121-R-J1-PDC patient-derived lung adenocarcinoma cell line growth inhibition [KRAS2]
Conditions: for IC50: curve of first compound; for viability, T/C: stronger effect = lower value
Procedure, shortened: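 Combination screen of spheroid viability in tumor-cell co-cultures with endothelial (HUVEC) and mesenchymal stem cell stroma. Each agent was tested in half-log dilutions, topping at clinical Cmax or at 10 microM without a known Cmax.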

[1] = second compound 0.1 µM, first compound 0.01 µM
[2] = second compound 0.1 µM, first compound 0.0316 µM
[3] = second compound 0.1 µM, first compound 0.1 µM
[4] = second compound 0.1 µM, first compound 0.316 µM
[5] = second compound 0.1 µM, first compound 1 µM
[6] = second compound 0.1 µM, first compound 3.16 µM
[7] = second compound 0.316 µM, first compound 0.01 µM
[8] = second compound 0.316 µM, first compound 0.0316 µM
[9] = second compound 0.316 µM, first compound 0.1 µM
[10] = second compound 0.316 µM, first compound 0.316 µM
[11] = second compound 0.316 µM, first compound 1 µM
[12] = second compound 0.316 µM, first compound 3.16 µM
[13] = second compound 1 µM, first compound 0.01 µM
[14] = second compound 1 µM, first compound 0.0316 µM
[15] = second compound 1 µM, first compound 0.1 µM
[16] = second compound 1 µM, first compound 0.316 µM
[17] = second compound 1 µM, first compound 1 µM
[18] = second compound 1 µM, first compound 3.16 µM
[19] = second compound 3.16 µM, first compound 0.01 µM
[20] = second compound 3.16 µM, first compound 0.0316 µM
[21] = second compound 3.16 µM, first compound 0.1 µM
[22] = second compound 3.16 µM, first compound 0.316 µM
[23] = second compound 3.16 µM, first compound 1 µM
[24] = second compound 3.16 µM, first compound 3.16 µM
[25] = second compound 10 µM, first compound 0.01 µM
[26] = second compound 10 µM, first compound 0.0316 µM
[27] = second compound 10 µM, first compound 0.1 µM
[28] = second compound 10 µM, first compound 0.316 µM
[29] = second compound 10 µM, first compound 1 µM
[30] = second compound 10 µM, first compound 3.16 µM
[31] = second compound 0.1 µM, first compound 10 µM
[32] = second compound 0.316 µM, first compound 10 µM
[33] = second compound 1 µM, first compound 10 µM
[34] = second compound 3.16 µM, first compound 10 µM
[35] = second compound 10 µM, first compound 10 µM
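Further: spheroids exposed to agents for seven days before readout.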

In the case of `CC(=O)OC12COC1CC(O)C1(C)C(=O)C(O)C3=C(C)C(OC(=O)C(O)C(NC(=O)OC(C)(C)C)c4ccccc4)CC(O)(C(OC(=O)c4ccccc4)C21)C3(C)C` (stereo not given) + COc1cc2nc(C)nc(NC(C)c3cc(N)cc(C(F)(F)F)c3)c2cc1OC1CCOC1, the IC50 (second compound 0.1 µM) is reported as < 10 nM, the IC50 (second compound 0.316 µM) is reported as < 10 nM and the IC50 (second compound 1 µM) is reported as < 10 nM. The IC50 (second compound 3.16 µM) was < 10 nM, the IC50 (second compound 10 µM) was < 10 nM and the viability, T/C [1] was 37.4%. It also gave a viability, T/C [2] of 41.1%, a viability, T/C [3] of 41.4% and a viability, T/C [4] of 44.9%. It also gave a viability, T/C [5] of 41.9%, a viability, T/C [6] of 42.6% and a viability, T/C [7] of 38.2%. The viability, T/C [8] was 39.5%, the viability, T/C [9] was 36% and the viability, T/C [10] was 34.5%. It also gave a viability, T/C [11] of 36.9%, a viability, T/C [12] of 35.5% and a viability, T/C [13] of 35.8%. It also gave a viability, T/C [14] of 47.8%, a viability, T/C [15] of 49.6% and a viability, T/C [16] of 47.3%. It also gave a viability, T/C [17] of 48%, a viability, T/C [18] of 36.1% and a viability, T/C [19] of 33.5%. For the same molecule, the viability, T/C [20] was 31.4%, the viability, T/C [21] was 32% and the viability, T/C [22] was 31.7%. It also gave a viability, T/C [23] of 32.7%, a viability, T/C [24] of 33.3% and a viability, T/C [25] of 31.2%. For the same molecule, the viability, T/C [26] was 29.1%, the viability, T/C [27] was 30% and the viability, T/C [28] was 32.7%. For the same molecule, the viability, T/C [29] was 36.2% and the viability, T/C [30] was 32.2%.
In the case of `CN(C)C/C=C/C(=O)Nc1cc2c(Nc3ccc(F)c(Cl)c3)ncnc2cc1O[C@H]1CCOC1` + COc1cc2nc(C)nc(NC(C)c3cc(N)cc(C(F)(F)F)c3)c2cc1OC1CCOC1, the IC50 (second compound 0.1 µM) is reported as 0.885 nM, the IC50 (second compound 0.316 µM) is reported as < 0.316 nM and the IC50 (second compound 1 µM) is reported as < 0.316 nM. The IC50 (second compound 3.16 µM) was < 0.316 nM, the IC50 (second compound 10 µM) was < 0.316 nM and the viability, T/C (second compound 0.1 µM, first compound 0.000316 µM) was 60.5%. The viability, T/C (second compound 0.1 µM, first compound 0.001 µM) was 50.3%, the viability, T/C (second compound 0.1 µM, first compound 0.00316 µM) was 42.9% and the viability, T/C [1] was 44.4%. It also gave a viability, T/C [2] of 43.4%, a viability, T/C [3] of 49.3% and a viability, T/C (second compound 0.316 µM, first compound 0.000316 µM) of 37.2%. It also gave a viability, T/C (second compound 0.316 µM, first compound 0.001 µM) of 32.5%, a viability, T/C (second compound 0.316 µM, first compound 0.00316 µM) of 32.5% and a viability, T/C [7] of 30.5%. For the same molecule, the viability, T/C [8] was 31.1%, the viability, T/C [9] was 36.4% and the viability, T/C (second compound 1 µM, first compound 0.000316 µM) was 40.6%. The viability, T/C (second compound 1 µM, first compound 0.001 µM) was 34.3%, the viability, T/C (second compound 1 µM, first compound 0.00316 µM) was 28.9% and the viability, T/C [13] was 34.3%. The viability, T/C [14] was 33.3%, the viability, T/C [15] was 34.4% and the viability, T/C (second compound 3.16 µM, first compound 0.000316 µM) was 20.1%. It also gave a viability, T/C (second compound 3.16 µM, first compound 0.001 µM) of 20.4%, a viability, T/C (second compound 3.16 µM, first compound 0.00316 µM) of 18.3% and a viability, T/C [19] of 15.4%. For the same molecule, the viability, T/C [20] was 14.8%, the viability, T/C [21] was 15.8% and the viability, T/C (second compound 10 µM, first compound 0.000316 µM) was 19.4%. The viability, T/C (second compound 10 µM, first compound 0.001 µM) was 15.2%, the viability, T/C (second compound 10 µM, first compound 0.00316 µM) was 16% and the viability, T/C [25] was 14.6%. It also gave a viability, T/C [26] of 14.7% and a viability, T/C [27] of 16.4%.
In the case of `COC(=O)c1ccc2c(C(=Nc3ccc(N(C)C(=O)CN4CCN(C)CC4)cc3)c3ccccc3)c(O)[nH]c2c1` + COc1cc2nc(C)nc(NC(C)c3cc(N)cc(C(F)(F)F)c3)c2cc1OC1CCOC1, the IC50 (second compound 0.1 µM) is reported as 10000 nM, the IC50 (second compound 0.316 µM) is reported as < 31.6 nM and the IC50 (second compound 1 µM) is reported as < 31.6 nM. The IC50 (second compound 3.16 µM) was < 31.6 nM, the IC50 (second compound 10 µM) was < 31.6 nM and the viability, T/C [2] was 108%. For the same molecule, the viability, T/C [3] was 45.3%, the viability, T/C [4] was 46.4% and the viability, T/C [5] was 70.2%. The viability, T/C [6] was 46.2%, the viability, T/C [31] was 48.5% and the viability, T/C [8] was 45.5%. For the same molecule, the viability, T/C [9] was 43.4%, the viability, T/C [10] was 40.5% and the viability, T/C [11] was 49.7%. The viability, T/C [12] was 42.7%, the viability, T/C [32] was 42.9% and the viability, T/C [14] was 42.4%. For the same molecule, the viability, T/C [15] was 40.9%, the viability, T/C [16] was 37% and the viability, T/C [17] was 41.6%. The viability, T/C [18] was 35.1%, the viability, T/C [33] was 42.2% and the viability, T/C [20] was 43.5%. It also gave a viability, T/C [21] of 36.7%, a viability, T/C [22] of 41.7% and a viability, T/C [23] of 42.6%. For the same molecule, the viability, T/C [24] was 22.6%, the viability, T/C [34] was 0.49% and the viability, T/C [26] was 26.2%. For the same molecule, the viability, T/C [27] was 21.7%, the viability, T/C [28] was 21.1% and the viability, T/C [29] was 16.9%. It also gave a viability, T/C [30] of 0.62% and a viability, T/C [35] of 1.04%.
In the case of `O=C(c1cc(Cc2n[nH]c(=O)c3ccccc23)ccc1F)N1CCN(C(=O)C2CC2)CC1` + COc1cc2nc(C)nc(NC(C)c3cc(N)cc(C(F)(F)F)c3)c2cc1OC1CCOC1, the IC50 (second compound 0.1 µM) is reported as > 10000 nM, the IC50 (second compound 0.316 µM) is reported as > 10000 nM and the IC50 (second compound 1 µM) is reported as > 10000 nM. The IC50 (second compound 3.16 µM) was < 31.6 nM, the IC50 (second compound 10 µM) was 46.7 nM and the viability, T/C [2] was 60%. It also gave a viability, T/C [3] of 105%, a viability, T/C [4] of 59.7% and a viability, T/C [5] of 93.4%. It also gave a viability, T/C [6] of 120%, a viability, T/C [31] of 79.2% and a viability, T/C [8] of 54.1%. The viability, T/C [9] was 57.4%, the viability, T/C [10] was 55.9% and the viability, T/C [11] was 56.9%. It also gave a viability, T/C [12] of 64.4%, a viability, T/C [32] of 66.2% and a viability, T/C [14] of 103%. The viability, T/C [15] was 114%, the viability, T/C [16] was 126% and the viability, T/C [17] was 124%. For the same molecule, the viability, T/C [18] was 103%, the viability, T/C [33] was 100% and the viability, T/C [20] was 47.7%. It also gave a viability, T/C [21] of 50.5%, a viability, T/C [22] of 49% and a viability, T/C [23] of 59.8%. The viability, T/C [24] was 56.9%, the viability, T/C [34] was 54.9% and the viability, T/C [26] was 60.5%. For the same molecule, the viability, T/C [27] was 29.5%, the viability, T/C [28] was 26.1% and the viability, T/C [29] was 33.6%. For the same molecule, the viability, T/C [30] was 20.9% and the viability, T/C [35] was 27.6%.

— PubChem BioAssay AID1963862 (Molecular Pharmacology Branch, DTP, NCI, 2024)
